Assays:
[1] = Body weight in asthma-induced mice; format: in vivo, Balb/c female mice; conditions: homoegonol study
Procedure: (§1) To prepare bronchial asthma-induced experimental animals, six-week-old Balb/c female mice of mean weight about 20 g were used. After one week of adaptation, individuals which had no observed abnormality on a basic physical examination were targeted. 200 μL of phosphate buffered saline (PBS)(pH 7.4) in which 2 mg of aluminum hydroxide (A8222, Sigma, St. Louis, Mo.) and 20 μg of ovalbumin (A5503, Sigma, St. Louis, Mo.) were suspended was injected into the peritoneal cavity at two-week intervals to result in sensitization. On days 28 to 30 after the first intraperitoneal administration of ovalbumin, inhalation challenge was performed for 30 min with 1% ovalbumin using an ultrasonic atomizer. 24 hours after the last antigen administration, airway hyperresponsiveness was measured. After 24 hours, a lethal dose of pentobarbital (Entobar®, Hanlim Pharm Co., Ltd.) was administered, body weight measurement and bronchotomy were performed, and bronchoalveolar lavage was performed with a total 1.2 mL of physiological saline, and then, samples were collected. […] Eight white mice were used for each group. Experimental groups for homoegonol were a group (hE7.5) in which animals were orally administered with 7.5 mg/kg homoegonol 1 hour prior to ovalbumin inhalation, a group (hE15) in which animals were orally administered with 15 mg/kg homoegonol 1 hour prior to ovalbumin inhalation, and a group (hE30) in which animals were orally administered with 30 mg/kg homoegonol 1 hour prior to ovalbumin inhalation, and five white mice were used for each group.
(§2) To determine an effect of styraxlignolide A on reduction in body weight in asthma-induced mice, body weight of each mouse prepared in Example 2 was measured. For statistical analyses for all measurements, means and standard errors (mean±S.E.) according to a number of variables were calculated, and comparison between each group was analyzed by performing a Mann-whitney U test using SPSS 10.0. Statically significance was accepted at p<0.05.
as §2, with “homoegonol” for “styraxlignolide A”

[2] = system: airway hyperresponsiveness; test: Airway hyperresponsiveness, Penh by one chamber plethysmography after methacholine inhalation; format: in vivo, Balb/c female mice; conditions: asthma-induced mice, homoegonol study
Procedure: as §1, with “Experimental groups for homoegonol were a group (hE7.5) in which animals were orally administered with 7.5 mg/kg homoegonol 1 hour prior to ovalbumin inhalation, a group (hE15) in which animals were orally administered with 15 mg/kg homoegonol 1 hour prior to ovalbumin inhalation, and a group (hE30) in which animals were orally administered with 30 mg/kg homoegonol 1 hour prior to ovalbumin inhalation, and five white mice were used for each group.” left out
The effect of styraxlignolide A on airway hyperresponsiveness caused by asthma occurrence was examined by measuring airway resistance with one chamber plethysmography (All medicus, Seoul, Republic of Korea) and degree of airway resistance was assessed by measuring Penh (enhanced pause) values. The baseline value was measured under a normal respiratory condition, and then, PBS was inhaled using an ultrasonic atomizer for 3 min, and Penh values were measured over 3 min. […] Louis, Mo.) which is used in general methods for diagnosis of bronchial asthma were inhaled and Penh values were measured. Penh value is shown in the following Equation 1, and the resulting Penh value was expressed as a percent increase in Penh after inhalation of each concentration of methacholine. The baseline Penh (saline challenge) was expressed as 100%.
Te: expiratory time (sec), the time from inspiration to the next inspiration
RT: relaxation time, the elapsed time between the beginning of the expiration and the moment when the remaining 30% of the tidal volume has been reached during expiration
PEF: Peak expiration flow
PIF: Peak inspiration flow
To examine the effect of homoegonol on airway hyperresponsiveness caused by asthma occurrence, Penh value was measured according to the method in <Experimental Example 2>.

COc1ccc(-c2cc3cc(CCCO)cc(OC)c3o2)cc1OC [homoegonol]
body weight ([1]; 7.5 mg/kg PO 1 hour prior to ovalbumin inhalation): 22.10 ± 0.13 g
body weight ([1]; 15 mg/kg PO 1 hour prior to ovalbumin inhalation): 21.23 ± 0.43 g
body weight ([1]; 30 mg/kg PO 1 hour prior to ovalbumin inhalation): 21.98 ± 0.47 g
Penh values ([2]; 7.5 mg/kg PO, methacholine 0 mg/ml): 0.6003 ± 0.0500
Penh values ([2]; 7.5 mg/kg PO, methacholine 12.5 mg/ml): 1.1399 ± 0.1279
Penh values ([2]; 7.5 mg/kg PO, methacholine 25 mg/ml): 1.4067 ± 0.1279
Penh values ([2]; 7.5 mg/kg PO, methacholine 50 mg/ml): 1.4317 ± 0.2094
Penh values ([2]; 15 mg/kg PO, methacholine 0 mg/ml): 0.4538 ± 0.0376
Penh values ([2]; 15 mg/kg PO, methacholine 12.5 mg/ml): 0.7989 ± 0.0736
Penh values ([2]; 15 mg/kg PO, methacholine 25 mg/ml): 1.0243 ± 0.1881
Penh values ([2]; 15 mg/kg PO, methacholine 50 mg/ml): 1.0918 ± 0.1914
Penh values ([2]; 30 mg/kg PO, methacholine 0 mg/ml): 0.4736 ± 0.0420
Penh values ([2]; 30 mg/kg PO, methacholine 12.5 mg/ml): 0.6516 ± 0.0914
Penh values ([2]; 30 mg/kg PO, methacholine 25 mg/ml): 0.9515 ± 0.1268
Penh values ([2]; 30 mg/kg PO, methacholine 50 mg/ml): 1.0576 ± 0.1582
